Measurements published in paper PMC3117861, “Analysis of Proteasomal Proteolysis during the In Vitro Metacyclogenesis of Trypanosoma cruzi” (PLoS ONE, 2011).
Where a SMILES comes first, the peptide text is derived from it. The star is where a group is joined. Cbz = O=C(OCc1ccccc1)*

Target: T1, 20S proteasome (Trypanosoma cruzi, UniProt V5BU39)
T1 construct: gene TCDM_03188; ATP in assay, so 20S and 26S forms not separated; with Proteasome subunit beta type-1; Proteasome subunit beta type-2; Proteasome subunit beta type-3; Proteasome subunit beta type-4; Proteasome subunit beta type-7; Proteasome subunit alpha type-1; Proteasome subunit alpha type-2; Proteasome subunit alpha type-3; Proteasome subunit alpha type-4; Proteasome subunit alpha type-5; Proteasome subunit alpha type-6; Proteasome subunit alpha type-7
Test: fluorimetric peptidase assay in crude extract
Assay type: biochemical
Details: read-out: % inhibition at 50 μM (chymotrypsin-like activity)

`CC(C)C[C@@H](C=O)NC(=O)[C@H](CC(C)C)NC(=O)[C@H](CC(C)C)NC(=O)OCc1ccccc1` [MG132] (Cbz-Leu-Leu-Leu-aldehyde) showed an inhibition at 50 µM of 95%.
